From article PMC12613816, “Discovery of Novel Isoxazole-Based Small-Molecule Toll-Like Receptor 8 Antagonists” (Journal of Medicinal Chemistry, 2025)

Key:
[1] = test system: TLR2 or TLR4; assay: TNF release in THP-1 macrophages stimulated with TLR2 or TLR4 agonists (Pam3CSK4, Pam2CSK4, LPS); type: cell-based, human; conditions: 10 μM compound, 24 h
Text: Mean ± SEM (n = 3). […] Mean + SEM (n = 4).

[2] = test system: THP-1 macrophages; assay: Cell viability (MTT) in THP-1 macrophages; type: cell-based, human; conditions: 24 h, up to 100 μM
Experimental: Effects on cell viability were assessed by the MTT assay. […] Subsequently, 25 μL of MTT (3-(4,5-dimethylthiazol-2-yl)-2,5-diphenyltetrazolium bromide, 5 mg/mL) was added and incubated for 4 h at 37 °C. After the supernatants were removed, DMSO (4720.1, Carl Roth, Karlsruhe, Germany) was added and absorption at 540 nm was measured. Viability of the untreated cells was defined as 100%. DMSO (10% (v/v); A994.1, Carl Roth, Karlsruhe, Germany) served as a positive control. page 9: Figure S8. […] (A) THP-1 Macrophages were incubated with increasing concentrations of 10 and 12 for 24 h. Cell viability was analyzed using the MTT assay, and normalized to non-stimulated cells (vehicle control). DMSO (10%, v/v) was used as the cytotoxic control. Mean + SEM (n=3). (B) PBMCs

[3] = test system: PBMCs; assay: Cell viability (LDH release) in PBMCs; type: cell-based, human; conditions: 24 h, up to 100 μM
Experimental: In selected experiments, LDH assay was performed according to the manufacturer’s instructions (Thermo fisher Scientific, Darmstadt, Germany). The percentage of LDH release was calculated compared to the 100% cell lysis control.
(A) THP-1 Macrophages were incubated with increasing concentrations of 10 and 12 for 24 h. Cell viability was analyzed using the MTT assay, and normalized to non-stimulated cells (vehicle control). DMSO (10%, v/v) was used as the cytotoxic control. Mean + SEM (n=3). (B) PBMCs were incubated with 0.6 µM TL8-506 or increasing concentrations of 10 and 12 for 24 h. LDH […]
maximum LDH release. Mean + SEM (n=3-4).

[4] = biological target: T1, TLR8 (Homo sapiens, UniProt Q9NR97); assay: Inhibition of TL8-506-stimulated NF-κB activity (SEAP reporter, QuantiBlue) in hTLR8-HEK293 reporter cells; type: cell-based; design: host or cells: HEK293 (HEK-Blue hTLR8)
T1 sequence (Q9NR97 27-1041): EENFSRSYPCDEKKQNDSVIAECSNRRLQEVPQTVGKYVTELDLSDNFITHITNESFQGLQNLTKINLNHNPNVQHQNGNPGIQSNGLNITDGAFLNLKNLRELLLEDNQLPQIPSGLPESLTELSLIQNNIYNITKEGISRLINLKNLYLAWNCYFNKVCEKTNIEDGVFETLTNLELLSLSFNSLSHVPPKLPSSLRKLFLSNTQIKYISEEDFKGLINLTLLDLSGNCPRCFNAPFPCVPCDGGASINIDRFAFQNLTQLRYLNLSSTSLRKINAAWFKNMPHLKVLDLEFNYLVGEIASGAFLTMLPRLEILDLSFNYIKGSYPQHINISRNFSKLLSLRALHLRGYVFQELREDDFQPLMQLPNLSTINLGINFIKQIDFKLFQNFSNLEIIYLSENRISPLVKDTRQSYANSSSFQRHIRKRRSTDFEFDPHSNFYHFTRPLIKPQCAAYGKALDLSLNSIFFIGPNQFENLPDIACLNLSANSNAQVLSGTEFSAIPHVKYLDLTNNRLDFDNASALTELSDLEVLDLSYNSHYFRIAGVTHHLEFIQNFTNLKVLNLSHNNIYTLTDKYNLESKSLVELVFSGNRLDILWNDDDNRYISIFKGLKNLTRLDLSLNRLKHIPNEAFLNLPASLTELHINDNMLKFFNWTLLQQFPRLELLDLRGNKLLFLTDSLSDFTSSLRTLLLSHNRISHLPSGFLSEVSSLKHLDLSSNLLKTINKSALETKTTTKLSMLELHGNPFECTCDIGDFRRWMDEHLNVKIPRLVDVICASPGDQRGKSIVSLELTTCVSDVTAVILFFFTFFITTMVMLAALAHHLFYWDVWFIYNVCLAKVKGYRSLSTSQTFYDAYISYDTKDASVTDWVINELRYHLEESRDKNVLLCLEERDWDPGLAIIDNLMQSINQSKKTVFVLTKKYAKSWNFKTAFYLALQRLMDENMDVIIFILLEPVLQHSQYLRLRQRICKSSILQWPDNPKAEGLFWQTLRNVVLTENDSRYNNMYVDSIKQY

[5] = biological target: T2, hTLR7 (Homo sapiens, UniProt Q9NYK1); assay: Inhibition of CL307-stimulated NF-κB activity (SEAP reporter) in hTLR7-HEK293 reporter cells; type: cell-based
T2 construct: host or cells: HEK293 (HEK-Blue hTLR7)
T2 sequence (Q9NYK1 27-1049): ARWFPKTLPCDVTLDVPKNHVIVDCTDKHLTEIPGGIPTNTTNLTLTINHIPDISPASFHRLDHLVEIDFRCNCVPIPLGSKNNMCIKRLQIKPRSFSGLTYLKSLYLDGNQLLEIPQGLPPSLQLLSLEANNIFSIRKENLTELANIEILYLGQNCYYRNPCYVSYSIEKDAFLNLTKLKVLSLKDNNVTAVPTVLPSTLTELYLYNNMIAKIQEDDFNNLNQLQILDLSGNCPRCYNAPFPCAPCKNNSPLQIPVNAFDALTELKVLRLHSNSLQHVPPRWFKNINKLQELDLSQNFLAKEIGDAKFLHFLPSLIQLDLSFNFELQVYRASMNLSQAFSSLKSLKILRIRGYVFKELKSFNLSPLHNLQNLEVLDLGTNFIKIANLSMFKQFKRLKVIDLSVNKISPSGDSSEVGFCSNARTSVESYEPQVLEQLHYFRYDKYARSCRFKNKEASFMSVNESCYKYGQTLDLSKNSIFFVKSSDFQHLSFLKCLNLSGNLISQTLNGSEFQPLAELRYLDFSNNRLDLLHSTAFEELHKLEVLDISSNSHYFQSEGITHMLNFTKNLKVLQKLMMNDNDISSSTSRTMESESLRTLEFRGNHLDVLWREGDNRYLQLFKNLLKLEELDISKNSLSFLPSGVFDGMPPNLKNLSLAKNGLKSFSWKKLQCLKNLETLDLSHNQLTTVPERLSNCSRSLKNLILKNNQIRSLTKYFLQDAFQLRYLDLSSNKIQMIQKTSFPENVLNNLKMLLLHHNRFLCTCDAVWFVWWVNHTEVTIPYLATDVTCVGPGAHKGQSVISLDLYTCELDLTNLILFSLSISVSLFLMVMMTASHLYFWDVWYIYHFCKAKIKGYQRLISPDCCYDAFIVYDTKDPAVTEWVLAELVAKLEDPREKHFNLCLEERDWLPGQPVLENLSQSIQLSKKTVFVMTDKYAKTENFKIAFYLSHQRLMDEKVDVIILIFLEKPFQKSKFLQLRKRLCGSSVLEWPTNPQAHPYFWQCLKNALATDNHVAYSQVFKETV
Text: (§1) For stimulation experiments, cells were washed with phosphate-buffered saline (PBS, Sigma-Aldrich) and media was replaced with OptiMEM (Thermo Fisher Scientific, Darmstadt, Germany). […] The following TLR ligands were used: Pam2CSK4, Pam3CSK4, poly(I:C) (HMW), LPS from Escherichia coli O111:B4 (LPS-EB Ultrapure), flagellin from Bacillus subtilis (flagellin-BS Ultrapure), CL307, CL075, R848, TL8-506, ODN2006 (all from InvivoGen, Toulouse, France), and Enpatoran (BIOZOL Diagnostika, Germany).

[6] = biological target: T1, TLR8; assay: Inhibition of TLR8 agonist-stimulated TNF release (ELISA) in THP-1 macrophages
[7] = biological target: T1, TLR8; assay: Inhibition of TL8-506-stimulated TNF release (ELISA) in PBMCs; conditions: read-out: IC50 [μM] (95% CI) TNF release PBMCs, 1 h preincubation, TL8-506 (0.6 μM) 4 h
[8] = test system: TLR2/1, TLR2/6, TLR3, TLR4, TLR5, TLR7, TLR9; assay: TLR specificity in hTLR-HEK293 reporter cells (NF-κB SEAP); type: cell-based, human; conditions: 10 μM compound
Experimental: (§2) Mean + SEM (n = 3). […] Bar graphs show mean + SEM (n = 3). […] Mean + SEM (n = 4). […] Whole-cell lysates were used for WB. […] Mean + SEM (n = 4). […] Mean + SEM (n = 4). […] Mean ± SEM (n = 3).
as §1, with “HEK-Blue cells (4 × 10^4 cells/well) and THP-1 macrophages (4 × 10^4 cells/well, 4 × 10^5 cells/well and 8 × 10^5 cells/well) were seeded in 96-well plates, 24-well plates, or 6-well plates (PS, Sarsted, Germany), respectively. For” for “For”

[9] = test system: TNF and IL1B mRNA expression; assay: TNF and IL1B mRNA expression (qRT-PCR) in TL8-506-stimulated THP-1 macrophages; type: cell-based, human; conditions: 10 μM, TL8-506 (6 μM) 1 h
[10] = test system: p-NF-κB p65, IκBα; assay: Western blot of NF-κB pathway proteins in TL8-506-stimulated THP-1 macrophages; type: cell-based, human; conditions: 10 μM, TL8-506 (0.6 μM) 15 min
Text: as §2
Twenty-five μg protein per lane was separated on a 10% TGX Stain-Free FastCast acrylamide gel (1610183, Bio-Rad, Feldkirchen, Germany) containing TEMED (2367, Carl Roth, Karlsruhe, Germany) and ammonium persulfate (A3678, Sigma-Aldrich, Taufkirchen, Germany) using MiniPROTEAN electrophoresis system (Bio-Rad). Gels were blotted on low fluorescence polyvinylidene difluoride membranes (Immobilon-FL PVDF low fluorescence; 05317, Merck, Darmstadt, Germany) using the Trans-Blot Turbo System (Bio-Rad, Feldkirchen, Germany). Membranes were blocked using 5% milk (T145.2, Carl Roth, Karlsruhe, Germany) in TBS-T buffer consisting of TRIS HCl (T3253, Sigma-Aldrich, Taufkirchen, Germany), NaCl (27810.295, VWR, Darmstadt, Germany), and Tween 20 (9127.1, Carl Roth, Karlsruhe, Germany). […] Afterward, they were washed three times with TBS-T and incubated with either rabbit anti-IgG HRP conjugated antibody (no. 7074) or mouse anti-IgG HRP conjugated antibody (no. 7076), all from Cell Signaling Technology (CST, Leiden, The Netherlands), for one h at RT. […] Values of protein expression were analyzed by densitometry and normalized to total protein levels using Image lab 6.1 Bio-Rad, Feldkirchen, Germany.

[11] = test system: IL-1β release; assay: IL-1β release after TLR8 priming and NLRP3 activation in THP-1 macrophages; type: cell-based, human; conditions: 10 μM, TL8-506 priming, nigericin or ATP
Text: as §2

SMILES	TNF responses to TLR2 or TLR4 agonists [1]	Cell viability THP-1 macrophages [2]	Cell viability PBMCs [3]	IC50 [4] [µM]	inhibition at 10 µM ([4]; read-out: % inhibition at 10 µM ± SEM (NF-κB activity), 10 µM compound, TL8-506 (0.6 μM) 24 h, hTLR8-HEK293) [%]	IC50 ([4]; read-out: IC50 [μM] (95% CI) hTLR8-HEK293, inhibition of NF-κB activity, 1 h preincubation, TL8-506 (0.6 μM) 24 h) [µM]	Selectivity factor IC50 (TLR7)/ IC50 (TLR8) ([5]; hTLR7-HEK293 vs hTLR8-HEK293)	IC50 ([5]; read-out: IC50 [μM] (95% CI) hTLR7-HEK293, inhibition of NF-κB activity, 1 h preincubation, CL307 (1.7 µM) 24 h) [µM]	TNF production in response to TLR8 agonists TL8-506 or CL075 ([6]; 10 μM compound, THP-1 macrophages, 24 h)	IC50 ([6]; read-out: IC50 [μM] (95% CI) TNF release THP-1 macrophages, 1 h preincubation, TL8-506 (0.6 μM) 4 h, ELISA) [µM]	IC50 [7] [µM]	Activity against other TLRs (NF-κB activation) [8]	mRNA expression levels of TNF and IL1B [9]	IκBα level [10]	p-NF-κB p65 level [10]	IL-1β release [11]
COc1cc(C(=O)NCC(c2ccc(C)cc2)N(C)C)ccc1OCc1c(C)noc1C (stereo not shown) [Compound 12]	without influencing responses	unaffected up to 100 μM	without affecting cell viability up to 100 μM	< 0.5	83 ± 15	0.5	>102	> 50	selectively inhibited	0.12	1.15					
CCN1CCC(NC(=O)c2ccc(OCc3c(C)noc3C)c(OC)c2)CC1 [Compound 10]	without influencing responses	unaffected up to 100 μM	without affecting cell viability up to 100 μM									no significant activity against other TLRs	significantly inhibited	increased	reduced	blocked
